# Experimental data taken from ChEMBL document CHEMBL5625252, “Synthesis of peptidomimetics as antibiotic adjuvants for combination with aztreonam to combat MDR Pseudomonas aeruginosa” (Eur J Med Chem, 2023).
# The source made the active and inactive calls. The calls are words filed in the database; no cut-off is given here. Where a SMILES comes first, the peptide text is derived from it. The star is where a group is joined. βNA = c1ccc2cc(N*)ccc2c1
# What was measured:
# Pseudomonas aeruginosa [1] = assay: Antibacterial activity against Pseudomonas aeruginosa 16-11 in CAMH broth medium supplemented with 20.99 to 21.09 mM Mg2+ by checkerboard assay; format: functional
# Pseudomonas aeruginosa [2] = assay: Antibacterial activity against Pseudomonas aeruginosa 23-Y364 assessed as inhibition of bacterial growth incubated for 18 hrs by agar dilution method; format: functional
# Pseudomonas aeruginosa [3] = assay: Synergistic antibacterial activity against Pseudomonas aeruginosa 13-35 assessed as fractional inhibitory concentration index at 128 ug/ml incubated for 18 hrs in presence of aztreonam by checkerboard method; format: functional; settings: dose 128 µg/ml
# [4] = Cytotoxicity against HEK293 cells incubated for 24 hrs by MTT assay; format: toxicity, cell-based; settings: human
# Pseudomonas aeruginosa [5] = assay: Synergistic antibacterial activity against Pseudomonas aeruginosa 19-46 assessed as fractional inhibitory concentration index at 128 ug/ml incubated for 18 hrs in presence of aztreonam by checkerboard method; format: functional; settings: dose 128 µg/ml
# Pseudomonas aeruginosa [6] = assay: Antibacterial activity against Pseudomonas aeruginosa PAO1 in CAMH broth medium supplemented with 0.41 to 0.51 mM Mg2+ by checkerboard assay; format: functional
# Pseudomonas aeruginosa [7] = assay: Antibacterial activity against Pseudomonas aeruginosa PAO1 in CAMH broth medium supplemented with 20.99 to 21.09 mM Mg2+ by checkerboard assay; format: functional
# Pseudomonas aeruginosa [8] = assay: Synergistic antibacterial activity against Pseudomonas aeruginosa 12-1 assessed as fractional inhibitory concentration index in CAMH broth medium supplemented with 0.41 to 0.51 mM Mg2+ in presence of aztreonam by checkerboard assay; format: functional
# Pseudomonas aeruginosa [9] = assay: Synergistic antibacterial activity against Pseudomonas aeruginosa 13-35 assessed as fractional inhibitory concentration index in CAMH broth medium supplemented with 0.41 to 0.51 mM Mg2+ in presence of aztreonam by checkerboard assay; format: functional
# Pseudomonas aeruginosa [10] = assay: Synergistic antibacterial activity against Pseudomonas aeruginosa 12-1 assessed as aztreonam MIC at 128 ug/ml incubated for 18 hrs by checkerboard method; format: functional; settings: dose 128 µg/ml
# Pseudomonas aeruginosa [11] = assay: Synergistic antibacterial activity against Pseudomonas aeruginosa 12-1 in CAMH broth medium supplemented with 20.99 to 21.09 mM Mg2+ in presence of aztreonam by checkerboard assay; format: functional
# Pseudomonas aeruginosa [12] = assay: Synergistic antibacterial activity against Pseudomonas aeruginosa 13-17 assessed as fractional inhibitory concentration index at 128 ug/ml incubated for 18 hrs in presence of aztreonam by checkerboard method; format: functional; settings: dose 128 µg/ml
# Pseudomonas aeruginosa [13] = assay: Synergistic antibacterial activity against Pseudomonas aeruginosa 21-7 assessed as fractional inhibitory concentration index at 128 ug/ml incubated for 18 hrs in presence of aztreonam by checkerboard method; format: functional; settings: dose 128 µg/ml
# Pseudomonas aeruginosa [14] = assay: Synergistic antibacterial activity against Pseudomonas aeruginosa 13-35 in CAMH broth medium supplemented with 0.41 to 0.51 mM Mg2+ in presence of aztreonam by checkerboard assay; format: functional
# Pseudomonas aeruginosa [15] = assay: Synergistic antibacterial activity against Pseudomonas aeruginosa PAO1 in CAMH broth medium supplemented with 0.41 to 0.51 mM Mg2+ in presence of aztreonam by checkerboard assay; format: functional
# Pseudomonas aeruginosa [16] = assay: Antibacterial activity against Pseudomonas aeruginosa 13-35 in CAMH broth medium supplemented with 0.41 to 0.51 mM Mg2+ by checkerboard assay; format: functional
# Pseudomonas aeruginosa [17] = assay: Synergistic antibacterial activity against Pseudomonas aeruginosa PAO1 assessed as fractional inhibitory concentration index incubated for 18 hrs in presence of aztreonam by checkerboard method; format: functional
# Pseudomonas aeruginosa [18] = assay: Synergistic antibacterial activity against Pseudomonas aeruginosa 23-Y122 assessed as fractional inhibitory concentration index at 128 ug/ml incubated for 18 hrs in presence of aztreonam by checkerboard method; format: functional; settings: dose 128 µg/ml
# Pseudomonas aeruginosa [19] = assay: Antibacterial activity against Pseudomonas aeruginosa PAO1 infected in Galleria mellonella assessed as increase in larvae survival at 100 mg/kg measured after 96 hrs post inoculation in presence of 25 mg/kg aztreonam; format: functional
# Pseudomonas aeruginosa [20] = assay: Synergistic antibacterial activity against Pseudomonas aeruginosa 13-35 assessed as aztreonam MIC in CAMH broth medium supplemented with 0.41 to 0.51 mM Mg2+ by checkerboard assay; format: functional
# Pseudomonas aeruginosa [21] = assay: Synergistic antibacterial activity against Pseudomonas aeruginosa 13-3 assessed as aztreonam MIC at 128 ug/ml incubated for 18 hrs by checkerboard method; format: functional; settings: dose 128 µg/ml
# Pseudomonas aeruginosa [22] = assay: Antibacterial activity against Pseudomonas aeruginosa 19-46 assessed as inhibition of bacterial growth incubated for 18 hrs by agar dilution method; format: functional
# Pseudomonas aeruginosa [23] = assay: Inhibition of Pseudomonas aeruginosa 26 MexAB-OprM assessed as accumulation of Hoechst […] at 64 ug/ml; settings: dose 64.0 µg/ml
# Pseudomonas aeruginosa [24] = assay: Antibacterial activity against Pseudomonas aeruginosa 23-Y122 assessed as inhibition of bacterial growth incubated for 18 hrs by agar dilution method; format: functional
# Pseudomonas aeruginosa [25] = assay: Antibacterial activity against Pseudomonas aeruginosa PAO1 at 128 ug/ml measured upto 24 hrs by time-kill assay; format: functional, organism-based; settings: dose 128.0 µg/ml
# Pseudomonas aeruginosa [26] = assay: Antibacterial activity against Pseudomonas aeruginosa 19-55 assessed as inhibition of bacterial growth incubated for 18 hrs by agar dilution method; format: functional
# Pseudomonas aeruginosa [27] = assay: Antibacterial activity against Pseudomonas aeruginosa PAO1 infected in Galleria mellonella assessed as increase in larvae survival at 100 mg/kg after 12 hrs of innoculation; format: functional, organism-based
# Pseudomonas aeruginosa [28] = assay: Synergistic antibacterial activity against Pseudomonas aeruginosa 16-2 assessed as aztreonam MIC at 128 ug/ml incubated for 18 hrs by checkerboard method; format: functional; settings: dose 128 µg/ml
# Pseudomonas aeruginosa [29] = assay: Synergistic antibacterial activity against Pseudomonas aeruginosa 23-Y364 assessed as aztreonam MIC at 128 ug/ml incubated for 18 hrs by checkerboard method; format: functional; settings: dose 128 µg/ml
# Pseudomonas aeruginosa [30] = assay: Synergistic antibacterial activity against Pseudomonas aeruginosa 23-Y372 assessed as aztreonam MIC at 128 ug/ml incubated for 18 hrs by checkerboard method; format: functional; settings: dose 128 µg/ml
# Pseudomonas aeruginosa [31] = assay: Antibacterial activity against Pseudomonas aeruginosa 23-Y511 assessed as inhibition of bacterial growth incubated for 18 hrs by agar dilution method; format: functional
# Pseudomonas aeruginosa [32] = assay: Antibacterial activity against Pseudomonas aeruginosa 23-Y539 assessed as inhibition of bacterial growth incubated for 18 hrs by agar dilution method; format: functional
# Pseudomonas aeruginosa [33] = assay: Synergistic antibacterial activity against Pseudomonas aeruginosa 19-55 assessed as aztreonam MIC at 128 ug/ml incubated for 18 hrs by checkerboard method; format: functional; settings: dose 128 µg/ml
# Pseudomonas aeruginosa [34] = assay: Synergistic antibacterial activity against Pseudomonas aeruginosa PAO1 assessed as aztreonam MIC at 128 ug/ml incubated for 18 hrs by checkerboard method; format: functional; settings: dose 128 µg/ml
# Pseudomonas aeruginosa [35] = assay: Antibacterial activity against Pseudomonas aeruginosa 13-35 assessed as inhibition of bacterial growth incubated for 18 hrs by agar dilution method; format: functional
# Pseudomonas aeruginosa [36] = assay: Antibacterial activity against Pseudomonas aeruginosa 16-2 at 128 ug/ml measured upto 24 hrs in presence of aztreonam by time-kill assay; format: functional, organism-based; settings: dose 128.0 µg/ml
# Pseudomonas aeruginosa [37] = assay: Antibacterial activity against Pseudomonas aeruginosa PAO1 assessed as inhibition of bacterial growth incubated for 18 hrs by agar dilution method; format: functional
# Pseudomonas aeruginosa [38] = assay: Synergistic antibacterial activity against Pseudomonas aeruginosa 21-8 assessed as aztreonam MIC at 128 ug/ml incubated for 18 hrs by checkerboard method; format: functional; settings: dose 128 µg/ml
# Pseudomonas aeruginosa [39] = assay: Synergistic antibacterial activity against Pseudomonas aeruginosa PAO1 assessed as aztreonam MIC in CAMH broth medium supplemented with 20.99 to 21.09 mM Mg2+ by checkerboard assay; format: functional
# Pseudomonas aeruginosa [40] = assay: Synergistic antibacterial activity against Pseudomonas aeruginosa 12-1 assessed as aztreonam MIC in CAMH broth medium supplemented with 20.99 to 21.09 mM Mg2+ by checkerboard assay; format: functional
structure (smiles),measurement,setting,value
N=C(N)NCCC[C@H](NC(=O)[C@@H](N)Cc1ccccc1)C(=O)Nc1ccc2ccccc2c1 [PABETAN] (H-Phe-Arg-βNA),MIC,Pseudomonas aeruginosa [1],512 mg/L
same,MIC,Pseudomonas aeruginosa [2],512 mg/L
same,fractional inhibitory concentration index (FICI),Pseudomonas aeruginosa [3],0.375
same,CC50 at 24 h,[4],> 100 µM
same,fractional inhibitory concentration index (FICI),Pseudomonas aeruginosa [5],0.375
same,MIC,Pseudomonas aeruginosa [6],512 mg/L
same,MIC,Pseudomonas aeruginosa [7],512 mg/L
same,fractional inhibitory concentration index (FICI),Pseudomonas aeruginosa [8],1.25
same,fractional inhibitory concentration index (FICI),Pseudomonas aeruginosa [9],0.5
same,MIC,Pseudomonas aeruginosa [10],8 mg/L
same,MIC,Pseudomonas aeruginosa [11],128 mg/L
same,fractional inhibitory concentration index (FICI),Pseudomonas aeruginosa [12],0.313
same,fractional inhibitory concentration index (FICI),Pseudomonas aeruginosa [13],0.5
same,MIC,Pseudomonas aeruginosa [14],128 mg/L
same,MIC,Pseudomonas aeruginosa [15],128 mg/L
same,MIC,Pseudomonas aeruginosa [16],512 mg/L
same,fractional inhibitory concentration index (FICI),Pseudomonas aeruginosa [17],0.375
same,fractional inhibitory concentration index (FICI),Pseudomonas aeruginosa [18],0.75
NCCC[C@H](NC(=O)C[C@@H](N)Cc1ccccc1)C(=O)Nc1ccc2ccccc2c1,MIC,Pseudomonas aeruginosa [1],512 mg/L
same,MIC,Pseudomonas aeruginosa [2],> 512 mg/L
same,Activity,Pseudomonas aeruginosa [19],40%
same,MIC,Pseudomonas aeruginosa [20],4 mg/L
same,MIC,Pseudomonas aeruginosa [21],8 mg/L
same,MIC,Pseudomonas aeruginosa [22],512 mg/L
same,fractional inhibitory concentration index (FICI),Pseudomonas aeruginosa [3],0.375
same,inhibition,Pseudomonas aeruginosa [23],Active
same,CC50 at 24 h,[4],> 100 µM
same,MIC,Pseudomonas aeruginosa [24],512 mg/L
same,Activity,Pseudomonas aeruginosa [25],inactive
same,fractional inhibitory concentration index (FICI),Pseudomonas aeruginosa [5],0.375
same,MIC,Pseudomonas aeruginosa [26],512 mg/L
same,Activity,Pseudomonas aeruginosa [27],inactive
same,MIC,Pseudomonas aeruginosa [6],512 mg/L
same,MIC,Pseudomonas aeruginosa [28],16 mg/L
same,MIC,Pseudomonas aeruginosa [29],8 mg/L
same,MIC,Pseudomonas aeruginosa [7],512 mg/L
same,MIC,Pseudomonas aeruginosa [30],4 mg/L
same,MIC,Pseudomonas aeruginosa [31],256 mg/L
same,fractional inhibitory concentration index (FICI),Pseudomonas aeruginosa [8],1.25
same,fractional inhibitory concentration index (FICI),Pseudomonas aeruginosa [9],0.5
same,MIC,Pseudomonas aeruginosa [32],512 mg/L
same,MIC,Pseudomonas aeruginosa [10],16 mg/L
same,MIC,Pseudomonas aeruginosa [11],128 mg/L
same,MIC,Pseudomonas aeruginosa [33],8 mg/L
same,MIC,Pseudomonas aeruginosa [34],2 mg/L
same,fractional inhibitory concentration index (FICI),Pseudomonas aeruginosa [12],0.313
same,MIC,Pseudomonas aeruginosa [35],512 mg/L
same,fractional inhibitory concentration index (FICI),Pseudomonas aeruginosa [13],0.5
same,MIC,Pseudomonas aeruginosa [14],128 mg/L
same,Activity,Pseudomonas aeruginosa [36],Active
same,MIC,Pseudomonas aeruginosa [37],512 mg/L
same,MIC,Pseudomonas aeruginosa [15],128 mg/L
same,MIC,Pseudomonas aeruginosa [38],2 mg/L
same,MIC,Pseudomonas aeruginosa [39],8 mg/L
same,MIC,Pseudomonas aeruginosa [16],512 mg/L
same,fractional inhibitory concentration index (FICI),Pseudomonas aeruginosa [17],0.375
same,MIC,Pseudomonas aeruginosa [40],64 mg/L
same,fractional inhibitory concentration index (FICI),Pseudomonas aeruginosa [18],1.25
